The source of these data is patent publication US20230044690A1, “PROGESTERONE FORMULATION TO TRIGGER OVULATION AND PROVIDE LUTEAL PHASE SUPPORT” (AUGUSTA UNIVERSITY RESEARCH INSTITUTE, INC., priority 2019, published 2023).

The conditions of data set [1]: circulating progestins, compared by activity with 0.5 ng preovulatory progesterone; cited from earlier work.
The test system of data set [2] is ovulation. It counts as in vivo, human. As for the experimental part:
For the natural cycle, they were monitored with ultrasound at the base line on day 2, and then day 12 and 13. At day 13 of the cycle, their leading follicle had reached a size of 17 mm (FIG. 4B), P4 was 1.5 ng/ml and LH was 5 IU/L. They were given an intramuscular injection of 5 mg of progesterone. The protocol is outlined in FIG. 4A
Failure of the follicle to rupture was attributed to its size (17 mm) at the time of the trigger.

Data set [3] deals with gonadotropins surge. As to conditions: cited from earlier work.
For data set [4], the system named is gonadotropins surge. As to the kind of experiment: Reported progesterone dose and pharmacodynamics for induction of a gonadotropins surge (Leyendecker et al, 1972). It counts as in vivo, human. The note with it: about 5 mg of progesterone in sesame oil, intramuscular injection; estimate from Leyendecker 1972. As for the experimental part:
The lowest dose of progesterone reported for induction of a gonadotropins surge is […] injected intramuscularly (Leyendecker, et al, 1972).
Consequently, the target cumulative progesterone level in circulation was 1 ng/ml. Based on pharmacodynamics of progesterone (Leyendecker, et al, 1972), it was estimated that in order to achieve circulating progesterone level at its peak (120 minutes post injection) 1 ng/ml, an additional […] was needed to add to the patient's own 0.63 ng/ml. This would be achieved with about 5 mg of progesterone in sesame oil for intramuscular injection. […] Furthermore, progesterone continued to rise to the expected level several days later. The patient's P4 level on day 5 post trigger was excellent and additional supplementation with progesterone thereafter was given only for an abundance of caution.

Data set [5] deals with ovulation. The data set is classed as in vivo, human. The note with it: case 3. The procedure: A person, G2 P1, SAB1, height 152 cm, weight 164 lb was referred for infertility treatment following 6-month inability to conceive naturally. Patient's medical history was significant for PCOS and subclinical hypothyroidism, for which they were taking levothyroxine […]. Patient had menarche at 12, average period duration of 45 days, average menses duration of 6 days. Patient's fallopian tubes were both patent per HSG, with a normal uterine cavity (FIG. 6E). Their AMH was 9.3 ng/ml.
The medication regiment, at the beginning of the third attempt was the same as in the previous attempt when the patient became pregnant with 5 mg of Letrozole in addition to 100 mg CC for 5 days starting on the 3rd day of their period. […] Before the trigger […] P4 and LH were 0.62 ng/ml and 4.26 IU/L respectively (Table 3) and ultrasound identified three follicles 22, 22 and 19 mm (FIG. 6C-6D).
Seven days after the trigger shot, P4 level was 38.39 ng/ml at which time the patient was started on 200 mg progesterone vaginal suppository daily.

Each structure is given as a SMILES string. Read-outs that look alike come from different tables or passages of the source.

Consider `C#CC1(O)CC[C@H]2[C@@H]3CCC4=CC(=O)CC[C@@H]4[C@H]3CC[C@@]21CC` (mixture of isomers) [D/L norgestrel], for which the Consensus value in data set [1] is on record as 0.075 mg.

Turning to `CC(=O)[C@H]1CC[C@H]2[C@@H]3C=CC4=CC(=O)CC[C@@]4(C)[C@@H]3CC[C@]12C` [Dydrogesterone], the Consensus value in data set [1] is listed as 10 mg.

On to `CC(=O)O[C@]1(C(C)=O)CC[C@H]2[C@@H]3C[C@H](C)C4=CC(=O)CC[C@]4(C)[C@H]3CC[C@@]21C` [Medroxyprogesterone acetate], for which the Consensus value in data set [1] was 5 mg.

For `CC(=O)[C@H]1CC[C@H]2[C@@H]3CCC4=CC(=O)CC[C@]4(C)[C@H]3CC[C@]12C` [progesterone], the “Circulating hormone level LH” value was determined as 10.9 with ovulation [2] (0 hrs after trigger injection, 5 mg progesterone i.m., case 1); 28.4 with ovulation [2] (10 hrs after trigger injection, 5 mg progesterone i.m., case 1); 11.36 with ovulation [2] (49 hrs after trigger injection, 5 mg progesterone i.m., case 1). Moreover, the Follicle rupture result in the data set on ovulation [2] (17 mm leading follicle at trigger, 5 mg progesterone i.m., case 1) was “failed to rupture”. Also, in the data set with ovulation [2] (after 5 mg progesterone i.m., case 1), the “Time until LH was at the ovulation level” value was ≤ 12 h. For the same molecule, the LH in the data set with ovulation [2] (day 13 of the cycle, before the progesterone injection, case 1) is recorded as 5 IU/L; in the data set on ovulation [5] (17 hours 30 minutes after trigger shot, 5 mg progesterone in oil), 37.01 IU/L; with ovulation [5] (First follicular ultrasound, before trigger shot) it was 9.47 IU/L; in the data set with ovulation [5] (Stimulation day 10, before trigger shot), 5.09 IU/L; in the data set on ovulation [5] (day of progesterone trigger shot (stimulation day 12), before the trigger) it was 4.26 IU/L. In the data set on ovulation [2] (female, human, in vivo), this molecule registered a P4 of 1.5 ng/mL. Moreover, the “Lowest dose reported for induction of a gonadotropins surge” value in the data set with gonadotropins surge [3] (injected intramuscularly) is 10 mg. Moreover, the “Time of peak circulating progesterone level post injection” value with gonadotropins surge [3] (intramuscular injection) was 120 min. Moreover, the “Estimated additional circulating progesterone level at its peak” value with gonadotropins surge [4] was 0.35 ng/mL. For the same molecule, the “Ultrasound observation: uterine lining” value with ovulation [5] (day 3 after trigger shot) was “lining - 15.2 mm”; in the data set with ovulation [5] (day of progesterone trigger shot, before the trigger) it was 10C-10D) Uterine lining 8.8 mm. Moreover, the P4 level result in the data set with ovulation [5] (day 5 post trigger) is on record as “excellent”. The Pregnancy outcome with ovulation [5] (period 2 weeks later, 200 mg progesterone vaginal suppository daily from day 7) was “no pregnancy occurred”.

On to `C#C[C@]1(O)CC[C@H]2[C@@H]3CCC4=CC(=O)CC[C@@H]4[C@H]3CC[C@@]21C` [Norethindrone], for which the Consensus value in data set [1] was 0.35 mg.
